# Legend:
# [1] = Evaluation of dissolved amount of infrared-absorbing coloring agent; format: physicochemical; settings: 25° C., after stirring for 1 hour
# Procedure: The infrared-absorbing coloring agent shown in the tables below was added to a measurement solvent shown in the tables below, while the temperature was adjusted to 25° C. under atmospheric pressure. After stirring for 1 hour, the dissolved amount of each infrared-absorbing coloring agent in the measurement solvent at 25° C. was determined. The dissolved amount of the infrared-absorbing coloring agent was evaluated based on the following standard. A case of A was judged to be a good solvent, and a case of B was judged to be a poor solvent. The infrared-absorbing coloring agent exists as particles in the poor solvent. PGMEA described in the column of measurement solvent in the following tables is an abbreviation for propylene glycol monomethyl ether acetate. • A: dissolved amount of the infrared-absorbing coloring agent in 100 g of the measurement solvent at 25° C. was 0.1 g or more. • B: dissolved amount of the infrared-absorbing coloring agent in 100 g of the measurement solvent at 25° C. was less than 0.1 g.
# [2] = Maximal absorption wavelength of infrared-absorbing coloring agent in good solvent; format: physicochemical; settings: coloring agent solution in dimethyl sulfoxide; for λmax: largest absorbance in 650 to 1500 nm; for Number of maximal absorption wavelengths: wavelength range 650 to 1500 nm
# Procedure: Each infrared-absorbing coloring agent was dissolved in a solvent (good solvent) descried in the following table to prepare a coloring agent solution having a concentration of infrared-absorbing coloring agent of […], and absorption spectrum of the coloring agent solution was measured. The number of maximal absorption wavelengths existing in a wavelength range of 650 to 1500 nm and the wavelength (max) indicating the value having the largest absorbance are shown in the following table.
λmax [2],Number of maximal absorption wavelengths [2],Structure (SMILES),Solubility ([1]; Cyclopentanone),Solubility ([1]; Dimethyl sulfoxide),Solubility ([1]; PGMEA),Solubility ([1]; Water)
819 nm,2,"Cc1ccccc1-c1c2/c(=C(\C#N)c3ccc4ccccc4n3)n(B(c3ccccc3)c3ccccc3)c(-c3ccc(OCCO)cc3)c2/c(=C(\C#N)c2ccc3ccccc3n2)n1B(c1ccccc1)c1ccccc1 [Comparative coloring agent 1, reference compound]",B (dissolved amount of the infrared-absorbing coloring agent in 100 g of the measurement solvent at 25 °C was less than 0.1 g),A (dissolved amount of the infrared-absorbing coloring agent in 100 g of the measurement solvent at 25 °C was 0.1 g or more),B (dissolved amount of the infrared-absorbing coloring agent in 100 g of the measurement solvent at 25 °C was less than 0.1 g),B (dissolved amount of the infrared-absorbing coloring agent in 100 g of the measurement solvent at 25 °C was less than 0.1 g)
819 nm,2,Cc1ccccc1-c1c2/c(=C(\C#N)c3ccc4ccccc4n3)n(B(c3ccccc3)c3ccccc3)c(-c3ccc(OCCCCS(=O)(=O)O)cc3)c2/c(=C(\C#N)c2ccc3ccccc3n2)n1B(c1ccccc1)c1ccccc1 [Example A-1],B (dissolved amount of the infrared-absorbing coloring agent in 100 g of the measurement solvent at 25 °C was less than 0.1 g),A (dissolved amount of the infrared-absorbing coloring agent in 100 g of the measurement solvent at 25 °C was 0.1 g or more),B (dissolved amount of the infrared-absorbing coloring agent in 100 g of the measurement solvent at 25 °C was less than 0.1 g),B (dissolved amount of the infrared-absorbing coloring agent in 100 g of the measurement solvent at 25 °C was less than 0.1 g)
780 nm,2,Cc1ccccc1-c1c2/c(=C(\C#N)c3nc4ccccc4s3)n(B(c3ccccc3)c3ccccc3)c(-c3ccc(OCCCN(C)C)cc3)c2/c(=C(\C#N)c2nc3ccccc3s2)n1B(c1ccccc1)c1ccccc1 [Example A-3],B (dissolved amount of the infrared-absorbing coloring agent in 100 g of the measurement solvent at 25 °C was less than 0.1 g),A (dissolved amount of the infrared-absorbing coloring agent in 100 g of the measurement solvent at 25 °C was 0.1 g or more),B (dissolved amount of the infrared-absorbing coloring agent in 100 g of the measurement solvent at 25 °C was less than 0.1 g),B (dissolved amount of the infrared-absorbing coloring agent in 100 g of the measurement solvent at 25 °C was less than 0.1 g)
779 nm,2,Cc1ccccc1-c1c2/c(=C(\C#N)c3nc4ccccc4s3)n(B(c3ccccc3)c3ccccc3)c(-c3ccc(OCCCCS(=O)(=O)O)cc3)c2/c(=C(\C#N)c2nc3ccccc3s2)n1B(c1ccccc1)c1ccccc1 [Example A-4],B (dissolved amount of the infrared-absorbing coloring agent in 100 g of the measurement solvent at 25 °C was less than 0.1 g),A (dissolved amount of the infrared-absorbing coloring agent in 100 g of the measurement solvent at 25 °C was 0.1 g or more),B (dissolved amount of the infrared-absorbing coloring agent in 100 g of the measurement solvent at 25 °C was less than 0.1 g),B (dissolved amount of the infrared-absorbing coloring agent in 100 g of the measurement solvent at 25 °C was less than 0.1 g)
746 nm,2,Cc1ccccc1-c1c2/c(=C(\C#N)c3nc4ccc(Cl)cc4o3)n(B(c3ccccc3)c3ccccc3)c(-c3ccc(OCCCS(=O)(=O)O)cc3)c2/c(=C(\C#N)c2nc3ccc(Cl)cc3o2)n1B(c1ccccc1)c1ccccc1 [Example A-5],B (dissolved amount of the infrared-absorbing coloring agent in 100 g of the measurement solvent at 25 °C was less than 0.1 g),A (dissolved amount of the infrared-absorbing coloring agent in 100 g of the measurement solvent at 25 °C was 0.1 g or more),B (dissolved amount of the infrared-absorbing coloring agent in 100 g of the measurement solvent at 25 °C was less than 0.1 g),B (dissolved amount of the infrared-absorbing coloring agent in 100 g of the measurement solvent at 25 °C was less than 0.1 g)
801 nm,2,COc1ccc2nc(/C(C#N)=c3/c4c(-c5ccccc5C)n(B(c5ccccc5)c5ccccc5)/c(=C(/C#N)c5nc6ccc(OC)cc6s5)c4c(-c4ccc(OCCCCS(=O)(=O)O)cc4)n3B(c3ccccc3)c3ccccc3)sc2c1 [Example A-6],B (dissolved amount of the infrared-absorbing coloring agent in 100 g of the measurement solvent at 25 °C was less than 0.1 g),A (dissolved amount of the infrared-absorbing coloring agent in 100 g of the measurement solvent at 25 °C was 0.1 g or more),B (dissolved amount of the infrared-absorbing coloring agent in 100 g of the measurement solvent at 25 °C was less than 0.1 g),B (dissolved amount of the infrared-absorbing coloring agent in 100 g of the measurement solvent at 25 °C was less than 0.1 g)
747 nm,2,Cc1ccccc1-c1c2/c(=C(\C#N)c3nc4ccc(Br)cc4o3)n(B(c3ccccc3)c3ccccc3)c(-c3ccc(OCCCS(=O)(=O)O)cc3)c2/c(=C(\C#N)c2nc3ccc(Br)cc3o2)n1B(c1ccccc1)c1ccccc1 [Example A-7],B (dissolved amount of the infrared-absorbing coloring agent in 100 g of the measurement solvent at 25 °C was less than 0.1 g),A (dissolved amount of the infrared-absorbing coloring agent in 100 g of the measurement solvent at 25 °C was 0.1 g or more),B (dissolved amount of the infrared-absorbing coloring agent in 100 g of the measurement solvent at 25 °C was less than 0.1 g),B (dissolved amount of the infrared-absorbing coloring agent in 100 g of the measurement solvent at 25 °C was less than 0.1 g)

# Reference: US12528947B2, “Infrared-absorbing composition, film, optical filter, solid-state imaging element, image display device, and infrared sensor” (FUJIFILM Corporation, priority 2020, dated 2026)
